Reference: US12467917B2, “Reconstructing human early embryogenesis in vitro with pluripotent stem cells” (California Institute of Technology, priority 2021, dated 2025)

Experiments:
Type in all cases: cell-based, human
[1] = system: hEPSC aggregates; test: PLC inhibition in hEPSC 3D cultures: immunofluorescence quantification of nuclear GATA3 and apical PARD6; conditions: hEPSC 3D cultures treated with 2 μM and 3 μM, vs control without inhibitor
Procedure: The PLC-Protein Kinase C (PKC) pathway controls cellular polarisation at early stages of mouse embryo development. hEPSC 3D cultures were treated with 2 μM and 3 μM of the PLC inhibitor, U73122. […] To confirm the relationship between polarisation and outer cell commitment, siRNA transfection was used to knockdown (KD) PLCB1 in order to deplete PLC activity in cells during 3D aggregation (FIG. 2F). The depletion of PLC activity was confirmed by qRT-PCR to confirm that RNAi depletion of PLCB1 was effective (FIG. 8C).
Post incubation on gelatin plates, cells were counted using a haemocytometer and a total of 7200 hEPSCs was added to 1 mL of media composed of 50% IVF media (Continuous Single Culture-NX Complete (CSCM-NXC)) (90168, FUJIFILM), 25% hEP media, and 25% hTS media. This media was also supplemented with CHIR99021 (2 μM), Y27632 (5 μM), BMP4 (20 ng/mL), FGF2 (40 ng/mL), and A83-01 (2 μM). […]
Fluorescence images were acquired with an inverted Leica SP8 confocal microscope (Leica Microsystems), using a Leica Fluotar VISIR 0.95 NA 25× objective. […] Digital quantifications and immunofluorescence signal intensity graphs were obtained using Fiji software.
Apical enrichment analysis: F-actin and PARD6 polarisation were measured in a single focal plane, by taking the middle plane of the aggregate. […] The apical/basal signal intensity ratio was calculated as: I (apical)/I (basal). […]

[2] = system: hEPSCs; test: Screening of growth factors and inhibitors in hEPSC 3D culture; conditions: grown for 5 days without the named substance (condition 2 / condition 3)
Procedure: Next, various growth factors, cytokines, and small molecules were screened at widely adopted concentrations, to identify conditions facilitating cavity and early-lineage formation in these structures (FIG. 7A-FIG. 7E). […] Additionally, the cells were pulsed with the ALK5 kinase inhibitor A83-01 (2 μM) to promote TE differentiation for the first 48h of 3D culture, and this inhibitor was removed after this time to avoid a complete loss in pluripotency. Concomitantly, the concentration of FGF2 was decreased by half (20 ng/ml) for the same purpose. Using this optimized condition, the emergence of cavitated structures was observed, 3 to 4 days after cell seeding (FIG. 1D).
Post incubation on gelatin plates, cells were counted using a haemocytometer and a total of 7200 hEPSCs was added to 1 mL of media composed of 50% IVF media (Continuous Single Culture-NX Complete (CSCM-NXC)) (90168, FUJIFILM), 25% hEP media, and 25% hTS media. This media was also supplemented with CHIR99021 (2 μM), Y27632 (5 μM), BMP4 (20 ng/mL), FGF2 (40 ng/mL), and A83-01 (2 μM). Cell suspensions were added dropwise to the Aggrewells. All wells without cells were filled with 1 mL PBS to humidify the local atmosphere to minimize evaporation. The AggreWell plate (24-well, 1200 Aggrewell format) was then centrifuged for 3 min at 100 g, and placed at 37° C. under hypoxic conditions (5% CO2 and 5% O2). […]

[3] = system: hEP-structures; test: Frequency of cavitated structures in WNT3A-supplemented 3D culture; conditions: day 6; WNT3A at 25 or 50 ng/mL added to culture media; vs control
Procedure: Post incubation on gelatin plates, cells were counted using a haemocytometer and a total of 7200 hEPSCs was added to 1 mL of media composed of 50% IVF media (Continuous Single Culture-NX Complete (CSCM-NXC)) (90168, FUJIFILM), 25% hEP media, and 25% hTS media. This media was also supplemented with CHIR99021 (2 μM), Y27632 (5 μM), BMP4 (20 ng/mL), FGF2 (40 ng/mL), and A83-01 (2 μM). Cell suspensions were added dropwise to the Aggrewells. All wells without cells were filled with 1 mL PBS to humidify the local atmosphere to minimize evaporation. The AggreWell plate (24-well, 1200 Aggrewell format) was then centrifuged for 3 min at 100 g, and placed at 37° C. under hypoxic conditions (5% CO2 and 5% O2). After 48h, media was removed from wells and replaced with fresh culture media as described above, although FGF2 concentration was lowered to 20 ng/ml and A83-01 was omitted. Cells were left to grow for an additional 48-72h until proper morphology was observed, at which point structures were fixed for immunostaining or transferred to IVC media (see below) for mimicking development beyond implantation stages.
Following completion of any given aggregation experiment (from day 4 to 6), all cystic structures clearly displaying a cavity were included in further analyses. Non-cavitated structures were excluded from downstream analyses.

## COc1ccc2c(c1)CC[C@@H]1[C@@H]2CC[C@]2(C)[C@@H](NCCCCCCN3C(=O)C=CC3=O)CC[C@@H]12 [U73122]
[1]; normalized to DAPI
  nuclear GATA3 signal intensity: reduction
[1]
  apical enrichment of PARD6: decrease

## C[C@@H](N)[C@H]1CC[C@H](C(=O)Nc2ccncc2)CC1.Cl.Cl [Y-27632, trans-4-[(R)-1-Aminoethyl]-N-4-pyridinylcyclohexanecarboxamide dihydrochloride]
[2]
  cell survival in media without the substance: failure of cell survival

## Cc1c[nH]c(-c2cnc(NCCNc3ccc(C#N)cn3)nc2-c2ccc(Cl)cc2Cl)n1 [CHIR99021]
[2]
  cell survival in media without the substance: failure of cell survival

B1: WNT3A: Wnt3a recombinant protein, WNT signaling pathway activator added to the culture media (protein, UniProt P56704 19-352, looked up)
Protein Wnt-3a: SYPIWWSLAVGPQYSSLGSQPILCASIPGLVPKQLRFCRNYVEIMPSVAEGIKIGIQECQHQFRGRRWNCTTVHDSLAIFGPVLDKATRESAFVHAIASAGVAFAVTRSCAEGTAAICGCSSRHQGSPGKGWKWGGCSEDIEFGGMVSREFADARENRPDARSAMNRHNNEAGRQAIASHMHLKCKCHGLSGSCEVKTCWWSQPDFRAIGDFLKDKYDSASEMVVEKHRESRGWVETLRPRYTYFKVPTERDLVYYEASPNFCEPNPETGSFGTRDRTCNVSSHGIDGCDLLCCGRGHNARAERRREKCRCVFHWCCYVSCQECTRVYDVHTCK
[3]
  yield (frequency) of cavitated structures: did not make any significant difference
